Assay [1] addresses T1, rabbit uterine cytosolic progestin receptor (PR) (Oryctolagus cuniculus, UniProt P06186).
T1 construct: The high speed supernatant fraction is used as the receptor preparation; from tissue; host or cells: uterus of New Zealand rabbits, 200,000 G supernatant (cytosol)
T1 sequence (P06186 1-930): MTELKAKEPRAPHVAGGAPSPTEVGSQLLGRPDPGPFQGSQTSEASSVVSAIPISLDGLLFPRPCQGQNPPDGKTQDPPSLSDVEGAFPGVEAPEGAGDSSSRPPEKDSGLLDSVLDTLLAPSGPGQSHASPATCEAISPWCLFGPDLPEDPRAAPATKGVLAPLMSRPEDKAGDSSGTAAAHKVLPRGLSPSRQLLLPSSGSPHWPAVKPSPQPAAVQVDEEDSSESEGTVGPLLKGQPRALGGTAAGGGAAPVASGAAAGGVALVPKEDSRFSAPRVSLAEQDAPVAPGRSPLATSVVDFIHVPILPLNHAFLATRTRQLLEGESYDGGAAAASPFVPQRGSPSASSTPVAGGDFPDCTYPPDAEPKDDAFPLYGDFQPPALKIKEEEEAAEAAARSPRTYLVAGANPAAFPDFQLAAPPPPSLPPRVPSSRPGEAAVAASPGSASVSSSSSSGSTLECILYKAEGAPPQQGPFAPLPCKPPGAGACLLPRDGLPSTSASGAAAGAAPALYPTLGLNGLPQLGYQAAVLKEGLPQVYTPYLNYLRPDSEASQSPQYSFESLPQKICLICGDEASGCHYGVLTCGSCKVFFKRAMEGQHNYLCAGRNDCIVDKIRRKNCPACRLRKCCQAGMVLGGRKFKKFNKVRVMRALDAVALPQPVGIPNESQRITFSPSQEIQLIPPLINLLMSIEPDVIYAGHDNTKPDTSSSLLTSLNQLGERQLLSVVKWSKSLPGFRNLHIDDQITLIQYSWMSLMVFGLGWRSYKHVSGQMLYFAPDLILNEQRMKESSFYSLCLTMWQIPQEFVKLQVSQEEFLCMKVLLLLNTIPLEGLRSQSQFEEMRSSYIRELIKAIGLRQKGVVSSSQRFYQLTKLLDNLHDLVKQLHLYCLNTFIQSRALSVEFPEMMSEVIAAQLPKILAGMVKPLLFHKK
Put plainly: Progestin Receptor Binding: competitive displacement of 3H-R5020. As to conditions: rabbit uterine cytosol, 4° C., 18 h, read-out: PR: concentration required to displace 50% of H3 labeled R5020 (IC50). The arrangement: species or system rabbit (New Zealand rabbits). The protocol: Progestin Receptor Binding
The procedure used is essentially that of J. L. McGuire, C. D. Bariso and A. P. Shroff in Biochemistry 13, 319 (1974).
Uteri from New Zealand rabbits (1.5 to 2.5 kg) are placed in a cold buffer A (0.01M Tris-HCl, pH 8.0, 0.001M EDTA, 0.25M sucrose). The uteri are minced, washed and homogenized in cold buffer A. The homogenate (2 g wet tissue/mL buffer) is centrifuged at 200,000 G for 1 h at 4° C. The high speed supernatant fraction is used as the receptor preparation.
A competitive binding assay is performed by mixing ^3 H-R5020 with the receptor preparation and adding a known amount of unlabelled compound. This mixture is incubated at 4° C. for 18 h. The compounds bound to the receptor are separated from those free in solution using dextran coated charcoal and the amount of isotope bound to the receptor is determined. A depression of 20% or greater from control isotope binding is considered significant.
If there is no value reported in the T47D column that particular compound was not tested.
(In general: In a radioligand displacement assay an active substance lowers the binding of a labelled ligand.)

The test system of assay [2] is T47D human breast carcinoma cells. Put plainly: Ex Vivo Progestational Test: 3H-thymidine incorporation into T47-D cells. Format: cell-based. As to conditions: for EC50: T47D, antagonist, printed with - sign, R5020 (promegestone) induced proliferation, read-out: T47D: antagonist EC50 against R5020 induced proliferation. On the procedure: Ex Vivo Progestational Test
The incorporation of ^3 H-thymidine into T47-D cells was used to test the effect of compounds on T47-D cell proliferation.
T47-D (human breast line) was used employing standard sterile techniques. Cells were maintained in RPMI 1640 medium supplemented with fetal bovine serum (10%) and insulin (0.2 I.U./ml). Cells were trypsinized and passaged using standard procedures.
Cells were plated in 96-well microtiter plates by incubation in RPMI medium (phenol red-free, insulin-free, 5% charcoal treated fetal bovine serum) at 37° C. in an atmosphere of 95% air/5% CO2. Approximately 48 hours later, spent medium was replaced by fresh medium containing test compounds dissolved in DMSO (0.1% final concentration) and the cells were incubated for approximately 22 hours. ^3 H-Thymidine was added and the incubation allowed to proceed for another 4 hours. The test was then stopped with the addition of excess unlabeled thymidine. Cells were washed free of soluble thymidine, trypsinized and harvested by standard procedures. The amount of ^3 H-thymidine incorporated into DNA was determined by liquid scintillation counting. The primary standards were promegestone, a potent synthetic progestin and RU486, an antiprogestin. Test compounds were generally screened at concentrations ranging from 0.1 to 1000 nM. A compound was considered active if it stimulated or inhibited thymidine incorporation. Results were expressed as the concentration of test compounds needed to increase proliferation 2 times over control (SC200) or the concentration needed to inhibit promegestone induced proliferation by 50% (EC50). A value less than 1000 nM was considered active.
Aspects of the application of the procedure used are described in the following: C. Christensen, D. Gunter, D. Saunders and V. Malviya, Gynecol. Oncol., 28, 25 (1987); J. Puzas, R. Drivdahl, G. Howard and D. Baylink, Proc. Soc. Exp. Biol. Med., 166, 113 (1981); and I. Keydar, L. Chen, S. Karby, F. Weiss, J. Delarea, M. Raduy, S. Chaitcik and H. Brenner, Eur. J. Cancer, 15, 659 (1979). […]
(Uptake of a labelled nucleoside into DNA is a usual measure of proliferation.)

Assay [3] has as its system TE85 human bone cells. Put plainly: Bone cell proliferation (TE85 cells). Format: cell-based. The conditions noted are these: average at 5 concentrations. An excerpt:
A similar method was used to measure the effect of test compounds on TE85 human bone cells.
Tables 2 and 3 show several examples of the invention with molecular formulas, melting points, and activity expressed as the average increase in bone cell proliferation at 5 concentrations (CP) or as the concentration of compound in nanomoles per liter (×10^-9 M) required to displace 50% of I^125 labeled vinyl nortestosterone (VNT) from the human bone progestin receptor (BPR) (IC50). If there is no value reported in the CP column that particular compound was not tested.

Structures are written as SMILES.

For the compound `O=S(=O)(c1ccc(I)cc1)N1CCC2CCCc3c(Br)cccc3C2=N1` (stereo not shown) [Example 1, 8-Bromo-3,4,4a,5,6,7-hexahydro-2-(4-iodobenzenesulfonyl)-2H-benzo[6,7]cyclohepta[1,2c]pyridazine], the IC50 in assay [1] came out at 76 nM.
The same measure, in the same setting: the same measure for `O=S(=O)(c1ccc(I)cc1)N1CCC2CCc3c(Br)cccc3C2=N1` (stereo not shown) [Example 2, 8-Bromo-3,4-diazo-1,2,3,9,10,10a-hexahydro-3-(4-iodobenzenesulfonyl)phenanthrene]: 10 nM.
On to `O=S(=O)(c1ccc(I)cc1)N1CCC2CCc3c(ccc(Br)c3Br)C2=N1` (stereo not shown) [Example 3, 7,8-Dibromo-3,4-diazo-1,2,3,9,10,10a-hexahydro-3-(4-iodobenzenesulfonyl)phenanthrene], for which the EC (2-fold above control) in assay [2] (agonist, printed with + sign, T47D proliferation, 3H-thymidine, read-out: T47D: agonist SC200 (concentration stimulating 2fold above control)) worked out at 0.337 µM. Further, the IC50 in assay [1] is 2.4 nM.
In the case of `O=S(=O)(c1ccc(I)cc1)N1CCC2CCc3cc(Cl)ccc3C2=N1` (stereo not shown) [Example 4, 7-Chloro-3,4-diazo-1,2,3,9,10,10a-hexahydro-3-(4-iodobenzenesulfonyl)phenanthrene], the EC50 in assay [2] was determined as 654 nM. Also, the IC50 in assay [1] was 8.3 nM.
In the case of `O=S(=O)(c1cc(Cl)ccc1Cl)N1CCC2CCc3cc(Cl)ccc3C2=N1` (stereo not shown) [Example 5, 7-Chloro-3,4-diazo-1,2,3,9,10,10a-hexahydro-3-(2,5-dichlorobenzenesulfonyl)phenanthrene], in assay [2], the EC50 is 495 nM. The IC50 in assay [1] is 34 nM.
In the case of `O=C(c1ccc(Cl)c(Cl)c1)N1CCC2CCc3ccccc3C2=N1` (stereo not shown) [Example 6, 3-(3,4-dichlorobenzoyl)-3,4-diazo-1,2,3,9,10,10a-hexahydrophenanthrene], the “CP: average increase in bone cell proliferation at 5 concentrations” value (“CP: average increase” below) in assay [3] is listed as 115.
Same read-out and setting: the same measure for `O=C(c1cc(Cl)cc(Cl)c1)N1CCC2CCCc3ccccc3C2=N1` (stereo not shown) [Example 7, 2-(3,5-dichlorobenzoyl)-3,4,4a,5,6,7-hexahydro-2H-benzo[6,7]cyclohepta[1,2c]pyridazine]: 120.
As to `O=C(c1ccc(Cl)c(Cl)c1)N1CCC2CCCc3ccccc3C2=N1` (stereo not shown) [Example 9, 2-(3,4-dichlorobenzoyl)-3,4,4a,5,6,7-hexahydro-2H-benzo[6,7]cyclohepta[1,2c]pyridazine], the “CP: average increase” value in assay [3] was 123.
In the case of `O=C(c1ccc(F)c(F)c1)N1CCC2CCc3ccccc3C2=N1` (stereo not shown) [Example 10, 3-(3,4-difluorobenzoyl)-3,4-diazo-1,2,3,9,10,10a-hexahydrophenanthrene], the “CP: average increase” value in assay [3] is 112.
Same read-out and setting: the same measure for `O=C(c1cc(Cl)cc(Cl)c1)N1CCC2CCc3ccccc3C2=N1` (stereo not shown) [Example 11, 3-(3,5-dichlorobenzoyl)-3,4-diazo-1,2,3,9,10,10a-hexahydrophenanthrene]: 113; for `O=C(c1ccc(Cl)c(Cl)c1)N1CCC2COc3ccccc3C2=N1` (stereo not shown) [Example 12, 3-(3,4-dichlorobenzoyl)-3,4-diazo-9-oxa-1,2,3,9,10,10a-hexahydrophenanthren]: 107; for `S=C(c1cc(Cl)cc(Cl)c1)N1CCC2CCCc3ccccc3C2=N1` (stereo not shown) [Example 15, 2-(3,5-dichlorothiobenzoyl)-3,4,4a,5,6,7-hexahydro-2H-benzo[6,7]cyclohepta[1,2c]pyridazine]: 109.
In the case of `Fc1ccc(C(=S)N2CCC3CCCc4ccccc4C3=N2)cc1F` (stereo not shown) [Example 16, 2-(3,4-difluorothiobenzoyl)-3,4,4a,5,6,7-hexahydro-2H-benzo[6,7]cyclohepta[1,2c]pyridazine], in assay [3], the “CP: average increase” value was 111.
Turning to `S=C(c1ccc(Cl)c(Cl)c1)N1CCC2CCCc3ccccc3C2=N1` (stereo not shown) [Example 17, 2-(3,4-dichlorothiobenzoyl)-3,4,4a,5,6,7-hexahydro-2H-benzo[6,7]cyclohepta[1,2c]pyridazine], the “CP: average increase” value in assay [3] came to 115.
In the case of `S=C(c1ccc(Cl)c(Cl)c1)N1CCC2CCc3ccccc3C2=N1` (stereo not shown) [Example 19, 3-(3,4-dichlorothiobenzoyl)-3,4-diazo-1,2,3,9,10,10a-hexahydrophenanthrene], in assay [3], the “CP: average increase” value amounted to 87.
Consider `S=C(c1cc(Cl)cc(Cl)c1)N1CCC2CCc3ccccc3C2=N1` (stereo not shown) [Example 20, 3-(3,5-dichlorothiobenzoyl)-3,4-diazo-1,2,3,9,10,10a-hexahydrophenanthrene], for which the “CP: average increase” value in assay [3] is listed as 103.

For the origin of these results see patent US5753655A, “1-arylsulphonyl, arylcarbonyl and arylthiocarbonyl pyridazino derivatives and methods of preparation” (Ortho Pharmaceutical Corporation, priority 1996, dated 1998).
